Experimental data: article PMC9306752, “Sandacrabins – Structurally Unique Antiviral RNA Polymerase Inhibitors from a Rare Myxobacterium” (Chemistry (Weinheim an Der Bergstrasse, Germany), 2022)
Converted amounts (≈) assume the structure as drawn. Where two headings read alike, the source gives them in different places.

Columns and labels:
U-2 OS cells = experiment: MTT assay; assay type: cell-based; conditions: Homo sapiens, U2OS, 120 h
Huh 7.5 cells = experiment: MTT assay, non-infected cells; assay type: cell-based; conditions: Homo sapiens, Huh7.5, 120 h
Acyrthosiphon pisum = experiment: Insecticidal activity, direct application to the posterior segment of adult insects; assay type: in vivo; conditions: for Death rate: positive control, 0.5 microliter of 0.01 μg/mL in acetone, after one hour; for Death rate / Death rate at 0.5 μg/insect: 20 insects; for Death rate at 0.5 μg/insect: adult A. pisum, 0.5 μg/insect in acetone, survival after one hour
HCoV229E = experiment: cells; assay type: cell-based, human pathogenic coronavirus HCoV229E; conditions: for IC50: HCoV229E replication in Huh-7.5 cells; for factor between cytotoxic activity (IC50 Huh-7.5) and antiviral activity (IC50 HCoV229E): IC50 Huh-7.5 versus IC50 HCoV229E
[1] = tested on: Pseudomonas aeruginosa PA14; experiment: Antimicrobial MIC determination, serial dilution in 96 well plates; assay type: cell-based; conditions: 24 h at 37 °C
Pichia anomala = experiment: as above; assay type: cell-based; conditions: Hansenula anomala
[2] = tested on: Mycobacterium smegmatis mc2 155; experiment: as above; assay type: cell-based; conditions: Mycolicibacterium smegmatis, MC2155
Escherichia coli BW25113 = experiment: as above; assay type: cell-based; conditions: 24 h at 37 °C
[3] = tested on: Candida albicans DSM-1665; experiment: as above; assay type: cell-based; conditions: DSM1665
[4] = target: SARS-CoV-2 RdRp complex (Nsp7, Nsp8, Nsp12) (Severe acute respiratory syndrome coronavirus 2, UniProt P0DTD1); experiment: biochemical; conditions: full template-length RNA product
Bacillus subtilis DSM-10 = experiment: Antimicrobial MIC determination, serial dilution in 96 well plates; assay type: cell-based
[5] = tested on: Escherichia coli ΔacrB JW0451-2; experiment: as above; assay type: cell-based; conditions: 24 h
[6] = tested on: Staphylococcus aureus Newman; experiment: as above; assay type: cell-based; conditions: 24 h at 37 °C
Huh-7.5 host cells = Huh-7.5 host cells in the antiviral assay
[7] = DSM10, 24 h at 37 °C, read-out: MIC
[8] = Homo sapiens, Huh7.5, 48 h at 33 °C
[9] = non-infected Huh 7.5 cells, 5 days at 37 °C

Row | SMILES | MIC [1] [µg/mL] | MIC (Pichia anomala) [µg/mL] | MIC [2] [µg/mL] | MIC (Escherichia coli BW25113) [µg/mL] | MIC [3] [µg/mL] | IC50 [4] [µM] | MIC (Bacillus subtilis DSM-10; 24 h at 37 °C) [µg/mL] | MIC (Bacillus subtilis DSM-10; [7]) [µg/mL] | MIC [5] [µg/mL] | IC50 (U-2 OS cells; 5 days at 37 °C) [µM] | IC50 (HCoV229E; [8]) [µM] | Death rate at 0.5 μg/insect (Acyrthosiphon pisum) [%] | MIC [6] [µg/mL] | IC50 (Huh 7.5 cells; [9]) [µM] | factor between cytotoxic activity (IC50 Huh-7.5) and antiviral activity (IC50 HCoV229E) (HCoV229E) | further results
1 | COc1cccc2c1C(=O)c1c(O)c3c(c(O)c1C2=O)C[C@@](O)(C(=O)CO)C[C@@H]3O[C@H]1C[C@H](N)[C@H](O)[C@H](C)O1 [Doxorubicin, reference compound] | – | – | – | – | – | – | – | – | – | – | – | – | – | – | – | IC50 (U-2 OS cells; positive control, 5 days): 0.015 µM; IC50 (Huh 7.5 cells; positive control, Huh 7.5 cells, 5 days): 0.037 µM
2 | O=[N+]([O-])NC1=NCCN1Cc1ccc(Cl)nc1 [Imidacloprid, reference compound] | – | – | – | – | – | – | – | – | – | – | – | – | – | – | – | Death rate (Acyrthosiphon pisum): 100 (Imidacloprid) %; Death rate (Acyrthosiphon pisum; listed as imidacloprid): 100%
3 | CCC(CC)COC(=O)[C@H](C)N[P@](=O)(OC[C@H]1O[C@@](C#N)(c2ccc3c(N)ncnn23)[C@H](O)[C@@H]1O)Oc1ccccc1 [Remdesivir, reference compound] | – | – | – | – | – | – | – | – | – | – | – | – | – | – | – | IC50 (HCoV229E; positive control, 48 h): 0.0056 µM
4 | CC(C)=CCC/C(C)=C/CC/C(C)=C/Cn1c(/C=C(\C)CC/C=C(\C)CCC=C(C)C)nc2cc(C)c(C)cc21 [Sandacrabin A] | > 64 | > 64 | > 64 | > 64 | > 64 | 108 | 32 (≈ 59.2 µM) | 32 (≈ 59.2 µM) | > 64 | > 37 | > 10 | 10 | 128 (≈ 237 µM) | > 37 | – | antiviral activity, effect on viral replication (in words) (HCoV229E; cells infected with HCoV229E): did not show any effect on viral replication; minimal insecticidal concentration (Acyrthosiphon pisum; dilution series 5–0.05 μg per insect, test group of three insects): > 5 μg/insect
5 | CC(C)=CCC/C(C)=C/CC/C(C)=C/Cn1c[n+](C/C=C(\C)CC/C=C(\C)CCC=C(C)C)c2cc(C)c(C)cc21 [Sandacrabin B] | > 64 | > 64 | > 64 | > 64 | > 64 | 3.5 | 64 | 64 | > 64 | 0.51 | 0.18 | 100 | 64 to 128 | 0.7 | 3–4 fold | cytotoxic effects on host cells (in words) (Huh-7.5 host cells): cytotoxic effects at the highest test concentration
6 | CC(C)=CCC/C(C)=C/CC/C(C)=C/Cn1c(C)[n+](C/C=C(\C)CC/C=C(\C)CCC=C(C)C)c2cc(C)c(C)cc21 [Sandacrabin C] | > 64 | > 64 | > 64 | > 64 | > 64 | 6.8 | 128 | 128 | > 64 | 1.22 | 0.34 | 90 | 64 to 128 | 3.61 | 11 fold | cytotoxic effects on host cells (in words) (Huh-7.5 host cells): cytotoxic effects at the highest test concentration
7 | CC(C)=CCC/C(C)=C/CC/C(C)=C/Cn1cnc2cc(C)c(C)cc21 [Sandacrabin D] | > 64 | > 64 | 64 (≈ 183 µM) | > 64 | > 64 | 85 | 64 (≈ 183 µM) | 64 (≈ 183 µM) | > 64 | 16.9 | 1.64 | 100 | 64 (≈ 183 µM) | 4.63 | 3–4 fold | –
8 | CC(C)=CCC/C(C)=C/CC/C(C)=C/Cn1c(C)nc2cc(C)c(C)cc21 [Sandacrabin E] | > 64 | > 64 | 64 (≈ 176 µM) | > 64 | > 64 | 43 | 64 (≈ 176 µM) | 64 (≈ 176 µM) | > 64 | 13.7 | 1.91 | 90 | 64 (≈ 176 µM) | 6.72 | 3–4 fold | –
9 | CN[C@H](CC(C)C)C(=O)N[C@H]1C(=O)N[C@@H](CC(N)=O)C(=O)N[C@H]2C(=O)N[C@H]3C(=O)N[C@H](C(=O)N[C@H](C(=O)O)c4cc(O)cc(O)c4-c4cc3ccc4O)[C@H](O)c3ccc(c(Cl)c3)Oc3cc2cc(c3O[C@@H]2O[C@H](CO)[C@@H](O)[C@H](O)[C@H]2O[C@H]2C[C@](C)(N)[C@H](O)[C@H](C)O2)Oc2ccc(cc2Cl)[C@H]1O [Vancomycin, reference compound] | – | – | – | – | – | – | – | 0.1 to 0.2 (≈ 0.069 to 0.138 µM) | – | – | – | – | – | – | – | –
